The results in this text go back to US20200390100A1, “SUBSTITUTED N-HETEROCYCLYL- AND N-HETEROARYL-TETRAHYDROPYRIMIDINONES AND THE SALTS THEREOF, AND THE USE OF SAME AS HERBICIDAL ACTIVE SUBSTANCES” (Bayer Aktiengesellschaft, priority 2017, published 2020).

In assay [1] the test system is Abutilon theophrasti. In words: Post-emergence herbicidal action, greenhouse, 320 g/ha. Particulars: application rate 320 g/ha, rated visually after about 3 weeks vs untreated controls. It is filed as in vivo. In a few lines: (§1)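 Plants treated post-emergence at the one-leaf stage, 2 to 3 weeks after sowing in sandy loam, with WP or EC formulations plus 0.5% additive at 320 g/ha. Visual rating about 3 weeks later versus untreated controls (100% = dead, 0% = like control).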

Assay [2] relates to Alopecurus myosuroides. Described as above. It is filed as in vivo. Particulars: application rate 320 g/ha, rated visually after about 3 weeks vs untreated controls. An outline of the steps: as §1
Assay [3] deals with Amaranthus retroflexus. The assay is described as above. It is filed as in vivo. Particulars: application rate 320 g/ha, rated visually after about 3 weeks vs untreated controls. In a few lines: as §1
Assay [4] deals with Echinochloa crus-galli. Described as above. In kind it is in vivo. Particulars: application rate 320 g/ha, rated visually after about 3 weeks vs untreated controls. In a few lines:
as §1

Assay [5] has as its system Pharbitis purpurea. Described as above. In kind it is in vivo. Particulars: application rate 320 g/ha, rated visually after about 3 weeks vs untreated controls. In a few lines:
as §1

For assay [6], the system named is Polygonum convolvulus. Described as above. The note with it: application rate 320 g/ha, rated visually after about 3 weeks vs untreated controls. It is filed as in vivo. In a few lines: as §1
Assay [7] has as its system Setaria viridis. The description is as above. In kind it is in vivo. Particulars: application rate 320 g/ha, rated visually after about 3 weeks vs untreated controls. An outline of the steps: as §1
Assay [8] deals with Stellaria media. The description is as above. The note with it: application rate 320 g/ha, rated visually after about 3 weeks vs untreated controls. In kind it is in vivo. In a few lines:
as §1

The subject of assay [9] is Viola tricolor. The description is as above. It is filed as in vivo. The note with it: application rate 320 g/ha, rated visually after about 3 weeks vs untreated controls. In a few lines: as §1
The test system of assay [10] is Abutilon theophrasti. The experiment in a line: Pre-emergence herbicidal action, greenhouse, 320 g/ha. It is filed as in vivo. The note with it: application rate 320 g/ha, scored visually after about 3 weeks vs untreated controls. In a few lines: (§2)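 After seeding and covering with soil, pots received a surface spray of the formulated compound containing 0.5% additive and were then grown for about 3 weeks. Activity was estimated by eye as a percentage of damage compared with untreated plants.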

In assay [11] the test system is Alopecurus myosuroides. The description is as above. In kind it is in vivo. Particulars: application rate 320 g/ha, scored visually after about 3 weeks vs untreated controls. An outline of the steps: as §2
Assay [12] concerns Amaranthus retroflexus. The assay is described as above. It is filed as in vivo. Particulars: application rate 320 g/ha, scored visually after about 3 weeks vs untreated controls. An outline of the steps: as §2
Assay [13] concerns Hordeum murinum. The description is as above. It is filed as in vivo. The note with it: application rate 320 g/ha, Table B14. In a few lines: as §2
The test system of assay [14] is Matricaria inodora. Described as above. Particulars: application rate 320 g/ha, scored visually after about 3 weeks vs untreated controls. In kind it is in vivo. An outline of the steps:
as §2

In assay [15] the test system is Pharbitis purpurea. The description is as above. In kind it is in vivo. Particulars: application rate 320 g/ha, Table B12. An outline of the steps:
as §2

Assay [16] deals with Polygonum convolvulus. The assay is described as above. In kind it is in vivo. The note with it: application rate 320 g/ha, scored visually after about 3 weeks vs untreated controls. An outline of the steps: as §2
Assay [17] relates to Setaria viridis. Described as above. In kind it is in vivo. The note with it: application rate 320 g/ha, Table B11. An outline of the steps: as §2
The subject of assay [18] is Stellaria media. The description is as above. The note with it: application rate 320 g/ha, scored visually after about 3 weeks vs untreated controls. It is filed as in vivo. An outline of the steps:
as §2

For assay [19], the system named is Veronica persica. The assay is described as above. Particulars: application rate 320 g/ha, Table B13. It is filed as in vivo. An outline of the steps:
as §2

The subject of assay [20] is Viola tricolor. Described as above. In kind it is in vivo. Particulars: application rate 320 g/ha, Table B8. In a few lines: as §2
The next assay concerns the target T1, photosystem II (PS II) (Spinacia oleracea, UniProt P69560).
T1 construct: the chloroplasts were osmotically ruptured and the thylakoid membranes were then obtained by centrifugation; from tissue; host or cells: fresh spinach leaves; thylakoid membrane preparation from isolated chloroplasts
The experiment in a line: Measurement of PS II activity in thylakoid membranes (DCPIP reduction). In kind it is biochemical, spinach. The note with it: PS II activity in spinach thylakoid membranes, Table E1; read-out: Effect. An outline of the steps:
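Thylakoid membranes from osmotically ruptured spinach chloroplasts in 50 mM phosphate pH 6.8, 10 mM KCl; compounds added from 100 μM DMSO solution (2.5% DMSO final), 120 μM DCPIP final. DCPIP reduction under light tracked as absorbance decrease at 595 nm over 10 min at 22 °C; % inhibition binned, metribuzin as plate standard.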

The test system of assay [21] is Hordeum murinum. The experiment in a line: Post-emergence herbicidal action, greenhouse, 320 g/ha. In kind it is in vivo. The note with it: application rate 320 g/ha, rated visually after about 3 weeks vs untreated controls. In a few lines:
as §1

Another assay has as its system Lolium rigidum. Described as above. It is filed as in vivo. The note with it: application rate 320 g/ha, rated visually after about 3 weeks vs untreated controls. An outline of the steps: as §1
Assay [22] deals with Matricaria inodora. The assay is described as above. It is filed as in vivo. The note with it: application rate 320 g/ha, rated visually after about 3 weeks vs untreated controls. An outline of the steps: as §1
The subject of assay [23] is Veronica persica. The description is as above. In kind it is in vivo. Particulars: application rate 320 g/ha, rated visually after about 3 weeks vs untreated controls. In a few lines:
as §1

Another assay relates to Avena fatua. The experiment in a line: Pre-emergence herbicidal action, greenhouse, 320 g/ha. In kind it is in vivo. Particulars: application rate 320 g/ha, scored visually after about 3 weeks vs untreated controls. In a few lines: as §2
For assay [24], the system named is Echinochloa crus-galli. The description is as above. It is filed as in vivo. The note with it: application rate 320 g/ha, scored visually after about 3 weeks vs untreated controls. An outline of the steps:
as §2

Another assay deals with Digitaria sanguinalis. The experiment in a line: Post-emergence herbicidal action, greenhouse, 320 g/ha. It is filed as in vivo. Particulars: application rate 320 g/ha, rated visually after about 3 weeks vs untreated controls. In a few lines:
as §1

As for `CC(=O)OC1CCN(C)C(=O)N1c1cc(C(C)(C)C)on1` (centres unmarked) [I.2-162, 3-(5-tert-Butyl-1,2-oxazol-3-yl)-1-methyl-2-oxohexahydropyrimidin-4-yl Acetate], the “Abutilon theophrasti (efficacy in %)” value with Abutilon theophrasti [1] and in the assay with Abutilon theophrasti [10] was 100% each time. The “Alopecurus myosuroides (efficacy in %)” value in the assay on Alopecurus myosuroides [2] came to 80%; with Alopecurus myosuroides [11], 90%. The “Amaranthus retroflexus (efficacy in %)” value in the assay with Amaranthus retroflexus [3] and with Amaranthus retroflexus [12] was 100% in each case. Also, the “Echinochloa crus-galli (efficacy in %)” value in the assay on Echinochloa crus-galli [4] is reported as 80%. In addition, the “Pharbitis purpurea (efficacy in %)” value in the assay on Pharbitis purpurea [5] and in the assay with Pharbitis purpurea [15] was 100% throughout. Further, the “Polygonum convolvulus (efficacy in %)” value in the assay on Polygonum convolvulus [6] and in the assay on Polygonum convolvulus [16] was 100% throughout. Also, the “Setaria viridis (efficacy in %)” value with Setaria viridis [7] amounted to 100%; with Setaria viridis [17], 90%. Besides, the “Stellaria media (efficacy in %)” value in the assay with Stellaria media [8] and in the assay on Stellaria media [18] was 100% each time. The “Viola tricolor (efficacy in %)” value in the assay with Viola tricolor [9] and in the assay with Viola tricolor [20] was 100% in each case. The “Hordeum murinum (efficacy in %)” value in the assay with Hordeum murinum [13] is 80%. For the same molecule, in the assay on Matricaria inodora [14], the “Matricaria inodora (efficacy in %)” value is listed as 100%. For the same molecule, the “Veronica persica (efficacy in %)” value in the assay on Veronica persica [19] is reported as 90%. Moreover, the inhibition at 100 µM on photosystem II (PS II) was in the range of 70 to 90%.

With `CCC(=O)OC1CCN(C)C(=O)N1c1cc(C(C)(C)C)on1` (centres unmarked) [I.3-162, 3-(5-tert-Butyl-1,2-oxazol-3-yl)-1-methyl-2-oxohexahydropyrimidin-4-yl Propionate], the “Abutilon theophrasti (efficacy in %)” value in the assay with Abutilon theophrasti [1] and in the assay on Abutilon theophrasti [10] was 100% each time. Also, the “Amaranthus retroflexus (efficacy in %)” value with Amaranthus retroflexus [3] and with Amaranthus retroflexus [12] was 100% in each case. Moreover, the “Hordeum murinum (efficacy in %)” value with Hordeum murinum [21] and with Hordeum murinum [13] was 90% in each case. In addition, the “Lolium rigidum (efficacy in %)” value in the assay with Lolium rigidum is on record as 80%. Also, the “Matricaria inodora (efficacy in %)” value in the assay on Matricaria inodora [22] and in the assay with Matricaria inodora [14] was 100% throughout. For the same molecule, the “Pharbitis purpurea (efficacy in %)” value in the assay with Pharbitis purpurea [5] and with Pharbitis purpurea [15] was 100% throughout. Moreover, the “Polygonum convolvulus (efficacy in %)” value in the assay with Polygonum convolvulus [6] and in the assay with Polygonum convolvulus [16] was 100% in each case. The “Setaria viridis (efficacy in %)” value in the assay on Setaria viridis [7] was determined as 90%; in the assay with Setaria viridis [17] it was 100%. Further, the results for the “Stellaria media (efficacy in %)” value in the assay with Stellaria media [8] and in the assay with Stellaria media [18] were 100% and 90%, respectively. For the same molecule, the “Veronica persica (efficacy in %)” value in the assay on Veronica persica [23] is recorded as 90%; with Veronica persica [19], 100%. Further, the “Viola tricolor (efficacy in %)” value in the assay on Viola tricolor [9] and with Viola tricolor [20] was 100% each time. Besides, in the assay on Alopecurus myosuroides [11], the “Alopecurus myosuroides (efficacy in %)” value was 80%. In addition, in the assay with Avena fatua, the “Avena fatua (efficacy in %)” value was 100%. For the same molecule, the “Echinochloa crus-galli (efficacy in %)” value in the assay on Echinochloa crus-galli [24] amounted to 80%. Further, on photosystem II (PS II), the inhibition at 100 µM lay in the range of 50 to 70%.

As to `CC(C)CC(=O)OC1CCN(C)C(=O)N1c1cc(C(C)(C)C)on1` (centres unmarked) [I.7-162, 3-(5-tert-Butyl-1,2-oxazol-3-yl)-1-methyl-2-oxohexahydropyrimidin-4-yl 3-methylbutanoate], the “Abutilon theophrasti (efficacy in %)” value in the assay with Abutilon theophrasti [1] and in the assay with Abutilon theophrasti [10] was 100% throughout. The “Alopecurus myosuroides (efficacy in %)” value in the assay on Alopecurus myosuroides [2] and in the assay on Alopecurus myosuroides [11] was 90% in each case. Moreover, the “Amaranthus retroflexus (efficacy in %)” value in the assay on Amaranthus retroflexus [3] and with Amaranthus retroflexus [12] was 100% each time. Further, the “Digitaria sanguinalis (efficacy in %)” value in the assay on Digitaria sanguinalis came out at 80%. Besides, the “Hordeum murinum (efficacy in %)” value was 80% with Hordeum murinum [21] and 90% in the assay on Hordeum murinum [13]. Also, the “Matricaria inodora (efficacy in %)” value in the assay on Matricaria inodora [22] and with Matricaria inodora [14] was 100% in each case. Besides, the “Pharbitis purpurea (efficacy in %)” value in the assay on Pharbitis purpurea [5] and with Pharbitis purpurea [15] was 100% throughout. Further, the “Polygonum convolvulus (efficacy in %)” value in the assay on Polygonum convolvulus [6] and in the assay on Polygonum convolvulus [16] was 90% each time. Besides, the “Setaria viridis (efficacy in %)” value with Setaria viridis [7] and with Setaria viridis [17] was 100% each time. Besides, the “Stellaria media (efficacy in %)” value with Stellaria media [8] and in the assay on Stellaria media [18] was 100% throughout. Further, the “Veronica persica (efficacy in %)” value is listed as 90% with Veronica persica [23] and 80% with Veronica persica [19]. Besides, the “Viola tricolor (efficacy in %)” value in the assay with Viola tricolor [9] and in the assay on Viola tricolor [20] was 100% each time. The “Avena fatua (efficacy in %)” value in the assay with Avena fatua is reported as 100%. Also, in the assay with Echinochloa crus-galli [24], the “Echinochloa crus-galli (efficacy in %)” value came out at 80%.
